Molecular target: human ERK-2 (Mitogen Activated Kinase 1) (Homo sapiens (Human), UniProt P28482)
Assay: ERK-2 Enzymatic Assay
Type: biochemical
Conditions: human ERK-2 enzyme 5 nM, 25 μM ATP, S/T17 peptide substrate; isomer = configuration of CR2R3
Procedure: Compounds were tested in an enzymatic assay using human ERK-2 (Mitogen Activated Kinase 1), recombinantly expressed as an n-terminal 6-His fusion protein in E. coli and corresponding to aa 8-360. […] Test compounds were diluted in DMSO in 3-fold serial dilutions at 100× final concentrations. […] The data collected from each well was fit to a straight line, and the resulting rates were used to calculate percent of control. Percent of control was plotted against compound concentration, and IC50 values were determined using a four-parameter fit.

Chain of human ERK-2 (Mitogen Activated Kinase 1) (P28482 8-360): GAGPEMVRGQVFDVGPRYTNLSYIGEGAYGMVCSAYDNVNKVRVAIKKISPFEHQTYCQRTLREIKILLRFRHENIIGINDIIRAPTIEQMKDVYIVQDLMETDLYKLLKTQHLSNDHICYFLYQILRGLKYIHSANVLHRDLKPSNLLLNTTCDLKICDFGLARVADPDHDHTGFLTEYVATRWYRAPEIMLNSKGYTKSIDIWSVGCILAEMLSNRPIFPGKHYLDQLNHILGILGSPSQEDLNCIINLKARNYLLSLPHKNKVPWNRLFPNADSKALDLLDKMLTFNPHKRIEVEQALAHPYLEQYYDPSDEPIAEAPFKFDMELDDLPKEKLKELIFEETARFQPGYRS

SMILES | IC50 [nM]
CN1C(=O)C[C@@H](Cc2ccc(Cl)cc2)c2nnc3cc(-c4ccnc(Nc5ccnn5C)c4)cc1n23 [(R) I-40, 9-(4-chlorobenzyl)-6-methyl-4-(2-((1-methyl-1H-pyrazol-5-yl)amino)pyridin-4-yl)-8,9-dihydro-1,2,2a^1,6-tetraazabenzo[cd]azulen-7(6H)-one] | 1.35
Cn1nccc1Nc1nccc(-c2cc3n4c(nnc4c2)[C@@H](Cc2ccccc2)CO3)n1 [(R) I-15, 4-(3-benzyl-3,4-dihydro-5-oxa-1,2,2a^1-triazaacenaphthylen-7-yl)-N-(1-methyl-1H-pyrazol-5-yl)pyrimidin-2-amine] | 0.02
Cn1nccc1Nc1cc(-c2cc3n4c(nnc4c2)C(Cc2ccccc2Cl)CCO3)ccn1 (single isomer, unassigned) [(R) I-60, 4-(9-(2-chlorobenzyl)-8,9-dihydro-7H-6-oxa-1,2,2a^1-triazabenzo[cd]azulen-4-yl)-N-(1-methyl-1H-pyrazol-5-yl)pyridin-2-amine] | 2.55
Cn1nccc1Nc1nccc(-c2cc3n4c(nnc4c2)[C@@H](Cc2ccc(F)cc2)CN3)n1 [(S) I-21, 4-(3-(4-fluorobenzyl)-4,5-dihydro-3H-1,2,2a^1,5-tetraazaacenaphthylen-7-yl)-N-(1-methyl-1H-pyrazol-5-yl)pyrimidin-2-amine] | < 0.02
Cn1nccc1Nc1nccc(-c2cc3n4c(nnc4c2)[C@H](Oc2ccc(F)c(F)c2)CCO3)n1 [(R) I-111, 4-(9-(3,4-difluorophenoxy)-8,9-dihydro-7H-6-oxa-1,2,2a^1-triazabenzo[cd]azulen-4-yl)-N-(1-methyl-1H-pyrazol-5-yl)pyrimidin-2-amine] | 2.6
CC(C)C[C@H]1CC(=O)N(C)c2cc(-c3ccnc(Nc4ccnn4C)c3)cc3nnc1n23 [(S) I-75, 9-isobutyl-6-methyl-4-(2-((1-methyl-1H-pyrazol-5-yl)amino)pyridin-4-yl)-8,9-dihydro-1,2,2a^1,6-tetraazabenzo[cd]azulen-7(6H)-one] | 718
Cn1nccc1Nc1cc(-c2cc3n4c(nnc4c2)C(Cc2cccc(Cl)c2)CO3)ccn1 (stereo not drawn) [Compound I-96, 4-(3-(3-chlorobenzyl)-3,4-dihydro-5-oxa-1,2,2a^1-triazaacenaphthylen-7-yl)-N-(1-methyl-1H-pyrazol-5-yl)pyridin-2-amine] | 0.149
COc1ccc(C[C@H]2CNc3cc(-c4ccnc(Nc5ccnn5C)n4)cc4nnc2n34)cc1F [(S) I-12, 4-(3-(3-fluoro-4-methoxybenzyl)-4,5-dihydro-3H-1,2,2a^1,5-tetraazaacenaphthylen-7-yl)-N-(1-methyl-1H-pyrazol-5-yl)pyrimidin-2-amine] | < 0.02
CC(C)C[C@@H]1CC(=O)N(C)c2cc(-c3ccnc(Nc4ccnn4C)c3)cc3nnc1n23 [(R) I-75, 9-isobutyl-6-methyl-4-(2-((1-methyl-1H-pyrazol-5-yl)amino)pyridin-4-yl)-8,9-dihydro-1,2,2a^1,6-tetraazabenzo[cd]azulen-7(6H)-one] | 3.22
Cn1nccc1Nc1nccc(-c2cc3n4c(nnc4c2)[C@@H](Oc2ccccc2)CCO3)n1 [(S) I-90, N-(1-methyl-1H-pyrazol-5-yl)-4-(9-phenoxy-8,9-dihydro-7H-6-oxa-1,2,2a^1-triazabenzo[cd]azulen-4-yl)pyrimidin-2-amine] | < 0.02
Cn1nccc1Nc1nccc(-c2cc3n4c(nnc4c2)[C@H](Cc2ccc(Cl)c(F)c2)CN3)n1 [(R) I-14, 4-(3-(4-chloro-3-fluorobenzyl)-4,5-dihydro-3H-1,2,2a^1,5-tetraazaacenaphthylen-7-yl)-N-(1-methyl-1H-pyrazol-5-yl)pyrimidin-2-amine] | 0.0441
Cc1csc(C[C@H]2CCOc3cc(-c4ccnc(Nc5ccnn5C)n4)cc4nnc2n34)n1 [(R) I-109, N-(1-methyl-1H-pyrazol-5-yl)-4-(9-((4-methylthiazol-2-yl)methyl)-8,9-dihydro-7H-6-oxa-1,2,2a^1-triazabenzo[cd]azulen-4-yl)pyrimidin-2-amine] | < 0.02
Cn1nccc1Nc1nccc(-c2cc3n4c(nnc4c2)[C@H](Oc2cncc(Cl)c2)CCO3)n1 [(R) I-77, 4-(9-((5-chloropyridin-3-yl)oxy)-8,9-dihydro-7H-6-oxa-1,2,2a^1-triazabenzo[cd]azulen-4-yl)-N-(1-methyl-1H-pyrazol-5-yl)pyrimidin-2-amine] | 0.311
CCC[C@@H]1CCOc2cc(-c3ccnc(Nc4ccnn4C)c3)cc3nnc1n23 [(R) I-103, N-(1-methyl-1H-pyrazol-5-yl)-4-(9-propyl-8,9-dihydro-7H-6-oxa-1,2,2a^1-triazabenzo[cd]azulen-4-yl)pyridin-2-amine] | 2.77
CCC(C)CC1COc2cc(-c3ccnc(Nc4ccnn4C)n3)cc3nnc1n23 (single isomer, unassigned) [(S) I-52, N-(1-methyl-1H-pyrazol-5-yl)-4-(3-(2-methylbutyl)-3,4-dihydro-5-oxa-1,2,2a^1-triazaacenaphthylen-7-yl)pyrimidin-2-amine] | 93.4
CC(C)C[C@@H]1COc2cc(-c3ccnc(Nc4ccnn4C)n3)cc3nnc1n23 [(S) I-45, 4-(3-isobutyl-3,4-dihydro-5-oxa-1,2,2a^1-triazaacenaphthylen-7-yl)-N-(1-methyl-1H-pyrazol-5-yl)pyrimidin-2-amine] | 20.9
Cn1nccc1Nc1nccc(-c2cc3n4c(nnc4c2)[C@@H](Oc2cncc(Cl)c2)CCO3)n1 [(S) I-77, 4-(9-((5-chloropyridin-3-yl)oxy)-8,9-dihydro-7H-6-oxa-1,2,2a^1-triazabenzo[cd]azulen-4-yl)-N-(1-methyl-1H-pyrazol-5-yl)pyrimidin-2-amine] | < 0.02
COc1ccc(C[C@H]2COc3cc(-c4ccnc(Nc5ccnn5C)n4)cc4nnc2n34)cc1 [(R) I-50, 4-(3-(4-methoxybenzyl)-3,4-dihydro-5-oxa-1,2,2a^1-triazaacenaphthylen-7-yl)-N-(1-methyl-1H-pyrazol-5-yl)pyrimidin-2-amine] | 0.02
CC(C)C[C@@H]1CN(C)c2cc(-c3ccnc(Nc4ccnn4C)c3)cc3nnc1n23 [(R) I-20, 4-(3-isobutyl-5-methyl-4,5-dihydro-3H-1,2,2a^1,5-tetraazaacenaphthylen-7-yl)-N-(1-methyl-1H-pyrazol-5-yl)pyridin-2-amine] | 48.7
CN1C(=O)C[C@@H](Cc2ccc(Cl)cn2)c2nnc3cc(-c4ccnc(Nc5ccnn5C)n4)cc1n23 [(R) I-84, 9-((5-chloropyridin-2-yl)methyl)-6-methyl-4-(2-((1-methyl-1H-pyrazol-5-yl)amino)pyrimidin-4-yl)-8,9-dihydro-1,2,2a^1,6-tetraazabenzo[cd]azulen-7(6H)-one] | 0.102
CC(C)C[C@@H]1c2nnc3cc(-c4ccnc(Nc5ccnn5C)n4)cc(n23)N(C)C(=O)N1C [Compound I-19, (R)-9-isobutyl-6,8-dimethyl-4-(2-((1-methyl-1H-pyrazol-5-yl)amino)pyrimidin-4-yl)-8,9-dihydro-1,2,2a^1,6,8-pentaazabenzo[cd]azulen-7(6H)-one] | 1.15
COc1cccc(C[C@H]2COc3cc(-c4ccnc(Nc5ccnn5C)c4)cc4nnc2n34)c1 [(R) I-97, 4-(3-(3-methoxybenzyl)-3,4-dihydro-5-oxa-1,2,2a^1-triazaacenaphthylen-7-yl)-N-(1-methyl-1H-pyrazol-5-yl)pyridin-2-amine] | < 0.02
Cn1nccc1Nc1nccc(-c2cc3n4c(nnc4c2)[C@@H](CCC(F)(F)F)CCO3)n1 [(S) I-102, N-(1-methyl-1H-pyrazol-5-yl)-4-(9-(3,3,3-trifluoropropyl)-8,9-dihydro-7H-6-oxa-1,2,2a^1-triazabenzo[cd]azulen-4-yl)pyrimidin-2-amine] | 0.025
Cn1nccc1Nc1nccc(-c2cc3n4c(nnc4c2)[C@@H](COCc2ccccc2)CCO3)n1 [(S) I-29, 4-(9-((benzyloxy)methyl)-8,9-dihydro-7H-6-oxa-1,2,2a^1-triazabenzo[cd]azulen-4-yl)-N-(1-methyl-1H-pyrazol-5-yl)pyrimidin-2-amine] | < 0.02
CCC[C@@H]1CCOc2cc(-c3ccnc(Nc4ccnn4C)n3)cc3nnc1n23 [(R) I-104, N-(1-methyl-1H-pyrazol-5-yl)-4-(9-propyl-8,9-dihydro-7H-6-oxa-1,2,2a^1-triazabenzo[cd]azulen-4-yl)pyrimidin-2-amine] | 2.3
CN1C(=O)N(Cc2cc(F)cc(F)c2)c2nnc3cc(-c4ccnc(Nc5ccnn5C)n4)cc1n23 [Compound I-99, 3-(3,5-difluorobenzyl)-5-methyl-7-(2-((1-methyl-1H-pyrazol-5-yl)amino)pyrimidin-4-yl)-3H-1,2,2a^1,3,5-pentaazaacenaphthylen-4(5H)-one] | 0.113
Cn1nccc1Nc1nccc(-c2cc3n4c(nnc4c2)[C@H](Oc2cncc(F)c2)CCO3)n1 [(R) I-91, 4-(9-((5-fluoropyridin-3-yl)oxy)-8,9-dihydro-7H-6-oxa-1,2,2a^1-triazabenzo[cd]azulen-4-yl)-N-(1-methyl-1H-pyrazol-5-yl)pyrimidin-2-amine] | 25.8
Cc1cc(C[C@H]2CCOc3cc(-c4ccnc(Nc5ccnn5C)n4)cc4nnc2n34)on1 [(R) I-93, N-(1-methyl-1H-pyrazol-5-yl)-4-(9-((3-methylisoxazol-5-yl)methyl)-8,9-dihydro-7H-6-oxa-1,2,2a^1-triazabenzo[cd]azulen-4-yl)pyrimidin-2-amine] | < 0.02
Cn1nccc1Nc1cc(-c2cc3n4c(ncc4c2)[C@H](Cc2ccc(Cl)cc2)CN3)ccn1 [(R) I-8, 4-(3-(4-chlorobenzyl)-4,5-dihydro-3H-1,2,2a^1,5-tetraazaacenaphthylen-7-yl)-N-(1-methyl-1H-pyrazol-5-yl)pyridin-2-amine] | 1.55
CN1C(=O)CC(Cc2ccc(F)cc2)c2nnc3cc(-c4ccnc(Nc5ccnn5C)n4)cc1n23 (stereo not drawn) [Compound I-79, 9-(4-fluorobenzyl)-6-methyl-4-(2-((1-methyl-1H-pyrazol-5-yl)amino)pyrimidin-4-yl)-8,9-dihydro-1,2,2a^1,6-tetraazabenzo[cd]azulen-7(6H)-one] | 17

From patent US9867833B2, “Serine/threonine kinase inhibitors” (GENENTECH, INC., priority 2013, dated 2018)
